Results published in ChEMBL document CHEMBL5260832, “Hepatoprotective natural triterpenoids” (Eur J Med Chem, 2018).

What was measured:
L02 [1] = experiment: Hepatoprotective activity against D-GaIN-induced in human HL7702 cells assessed as cell damage at 10 uM relative to control; type: functional
Hepatocyte [2] = experiment: Hepatoprotective activity against D-GaIN/TNFalpha-induced cell death in mouse hepatocyte at 100 uM relative to control; type: functional, cell-based; details: dose 100 µM
Hepatocyte [3] = experiment: Hepatoprotective activity against D-GaIN/TNFalpha-induced cell death in mouse hepatocyte at 25 uM relative to control; type: functional
Hepatocyte [4] = experiment: Hepatoprotective activity against D-GaIN-induced toxicity in mouse hepatocyte relative to control; type: functional, cell-based
[5] = Hepatotoxicity in D-GaIN induced Wistar rat assessed as change in induction of TAT level for 10 days relative to control; type: toxicity; set-up: concentration or dose not given beside the values; details: in vivo, 240 h, time 10 day
[6] = Hepatotoxicity in D-GaIN induced Wistar rat assessed as change in GTP leakage level for 10 days relative to control; type: toxicity; details: in vivo, 240 h, time 10 day
[7] = Hepatotoxicity in rat hepatocyte assessed as change in GSH level at 30 microg/mL relative to control; type: toxicity, cell-based; details: hepatocytes, at 30 µg/mL
Mus musculus [8] = organism: Mus musculus; experiment: Hepatoprotective activity in mouse liver homogenate assessed as inhibition of iron/ascorbate lipid peroxidation at 0.1 mg/mL relative to control; type: functional; set-up: scale not given: the % may be the effect or the level left
Mus musculus [9] = organism: Mus musculus; experiment: Hepatoprotective activity against D-GaIN/LPS induced liver injury mouse model assessed as increase in sAST relative to control; type: functional
Mus musculus [10] = experiment: Hepatoprotective activity against D-GaIN/CCl4 induced liver injury mouse model assessed as reduction in GPT level at 30 microg/kg, iv relative to control; type: functional; set-up: scale not given: the % may be the effect or the level left; details: dose 30 µg/kg
Mus musculus [11] = organism: Mus musculus; experiment: Hepatoprotective activity against D-GaIN/LPS induced liver injury mouse model assessed as increase in sALT relative to control; type: functional
Mus musculus [12] = organism: Mus musculus; experiment: Hepatoprotective activity in mouse liver homogenate assessed as inhibition of iron/ascorbate lipid peroxidation at 5.0 mg/mL relative to control; type: functional; set-up: scale not given: the % may be the effect or the level left
L02 [13] = experiment: Protection against D-GalN-induced toxicity in L02 cells […] assessed as reduction in cell growth relative to control; type: functional, Homo sapiens; set-up: scale not given: the % may be the effect or the level left
HepG2 [14] = experiment: Hepatoprotective activity against H2O2-induced cell death in human HepG2 cells assessed as reduction in AST level at 20 uM preincubated for 1 hr followed by H2O2-stimulation and measured after 24 hrs; type: functional
HepG2 [15] = experiment: Hepatoprotective activity against H2O2-induced cell death in human HepG2 cells assessed as reduction in ALT level at 20 uM preincubated for 1 hr followed by H2O2-stimulation and measured after 24 hrs; type: functional
Hepatocyte [16] = experiment: Hepatoprotective activity against D-GaIN/TNFalpha-induced cell death in mouse hepatocyte at 100 uM; type: functional, cell-based
Hepatocyte [17] = experiment: Hepatoprotective activity against D-GaIN induced liver injury in rat hepatocyte assessed as decrease in ALT level at 30 to 120 uM; type: functional; details: dose 30-120 µM
[18] = Hepatotoxicity in D-GaIN induced in Wistar rat model hepatocyte assessed as reduction in PLA2 level; type: toxicity, cell-based
Hepatocyte [19] = experiment: Hepatoprotective activity against D-GaIN induced liver injury in rat hepatocyte assessed as decrease in LDH level at 30 to 120 uM; type: functional; details: dose 30-120 µM

CC(C)=CCC[C@H](C(=O)O)[C@@H]1CC[C@]2(C)C3=C(CC[C@@]12C)[C@@]1(C)CC[C@H](O)C(C)(C)[C@@H]1CC3
Activity (L02 [1]): 50.5%

CC1(C)CC[C@]2(C(=O)O)CC[C@]3(C)[C@H](C=C[C@@H]4[C@@]5(C)C[C@@H](O)[C@H](O)[C@](C)(CO)[C@@H]5CC[C@]43C)[C@H]2C1
Activity (Hepatocyte [2]): 108.4% | Activity (Hepatocyte [3]): 15.4%

C[C@@H]1CC[C@]2(C(=O)O)CC[C@]3(C)C(=CC[C@@H]4[C@@]5(C)C[C@@H](O)[C@H](O)C(C)(C)[C@@H]5CC[C@]43C)[C@@H]2[C@]1(C)O [TOMENTIC ACID]
IC50 (Hepatocyte [4]): 9.5 µM

C[C@H]1[C@H](C)CC[C@@]2(C)[C@@H]1C1=CC[C@@H]3[C@@]4(C)CC[C@H](O)C(C)(C)[C@@H]4CC[C@@]3(C)[C@]1(C)C[C@@H]2O
Activity [5]: 39.8% | Activity [6]: 46.7%

C[C@H]1O[C@@H](O[C@H]2CC[C@@]3(C)[C@@H](CC[C@]4(C)[C@@H]3[C@H](O)C[C@@H]3C5=CC(C)(C)CC[C@]5(CO)[C@@H](O)C[C@]34C)[C@]2(C)CO)[C@H](O)[C@@H](O[C@@H]2O[C@H](CO)[C@@H](O)[C@H](O)[C@H]2O)[C@H]1O
Activity [7]: 64.7%

CC(C)=CCC[C@H](C(=O)O)[C@@H]1CC[C@]2(C)C3=C(CC[C@@]12C)[C@@]1(C)CCC(=O)C(C)(C)[C@@H]1CC3=O
Activity (L02 [1]): 25.6%

C=C(C)[C@@H]1CC[C@]2(C(=O)O)CC[C@]3(C)[C@H](CC[C@@H]4[C@@]5(C)C[C@@H](O)[C@H](O)C(C)(C)[C@@H]5CC[C@]43C)[C@@H]12
Activity (Mus musculus [8]): 13.7%

CC(C)=CCC[C@](C)(O)[C@H]1CC[C@]2(C)[C@@H]1[C@H](O)C[C@@H]1[C@@]3(C)CC[C@H](O)C(C)(C)[C@@H]3[C@@H](O[C@@H]3O[C@H](CO)[C@@H](O)[C@H](O)[C@H]3O)C[C@]12C [GINSENOSIDE RH1]
Activity (Mus musculus [9]): 90% | Activity (Mus musculus [10]): 72% | Activity (Mus musculus [11]): 93%

CC1(C)CC[C@]2(C(=O)O)CC[C@]3(C)C(=CC[C@@H]4[C@@]5(C)C[C@@H](O)[C@@H](O)C(C)(C)[C@@H]5CC[C@]43C)[C@@H]2C1
Activity (Mus musculus [8]): 16.8% | Activity (Mus musculus [12]): 52.7%

CC(C)[C@]1(CO)CC[C@@H]([C@H]2[C@H](O)C[C@]3(C)[C@@H]2CC[C@@H]2[C@@]4(C)CC[C@H](O[C@@H]5O[C@H](CO)[C@@H](O)[C@H](O)[C@H]5O[C@@H]5O[C@H](CO)[C@@H](O)[C@H](O)[C@H]5O)C(C)(C)[C@@H]4CC[C@]23C)O1
Activity (L02 [13]): 22.2%

C=C(C)[C@@H]1C[C@H](O)C2=C(C(=O)C[C@]3(C)[C@@H]([C@H](C)CCC(=O)O)CC[C@@]23C)[C@@]1(C)CCC(=O)OC
Activity (HepG2 [14]): 19.09 U/L | Activity (HepG2 [15]): 16.06 U/L

C=C(C)[C@@H]1C[C@H](O)C2=C(C(=O)C[C@]3(C)[C@@H]([C@H](C)CCC(=O)O)CC[C@@]23C)[C@@]1(C)CCC(=O)O
Activity (HepG2 [14]): 19.09 U/L | Activity (HepG2 [15]): 16.06 U/L

CO[C@@H]1C=C2[C@@H]3CC(C)(C)CC[C@]3(CO)[C@@H](O)C[C@@]2(C)[C@]2(C)CC[C@H]3C(C)(C)[C@@H](O[C@@H]4O[C@H](C)[C@H](O)[C@H](O[C@@H]5O[C@H](CO)[C@@H](O)[C@H](O)[C@H]5O)[C@H]4O)CC[C@]3(C)[C@@H]12
Activity [7]: 75%

CC1(C)CC[C@]2(C(=O)O)CC[C@]3(C)[C@H](C=C[C@@H]4[C@@]5(C)C[C@@H](O)[C@H](O)C(C)(C)[C@@H]5CC[C@]43C)[C@H]2[C@@H]1O
Activity (Hepatocyte [2]): 32.9% | Activity (Hepatocyte [3]): 15.4%

CC1=C2C3=CC[C@@H]4[C@@]5(C)C[C@@H](O)[C@H](O)[C@@](C)(CO)[C@@H]5CC[C@@]4(C)[C@]3(C)CC[C@@]2(C(=O)O[C@@H]2O[C@H](CO)[C@@H](O)[C@H](O)[C@H]2O)CC[C@H]1C
IC50 (Hepatocyte [16]): 34.6 µM

CC(C)=C[C@H]1C[C@@H]([C@@H]2CC[C@]3(C)C4=CC(=O)[C@H]5C(C)(C)[C@H](O)CC[C@]5(C)[C@H]4CC[C@@]23C)C(=O)O1
Activity (L02 [1]): 30.4%

CC(C)=CC[C@@H](O)[C@@H](C)[C@H]1CC[C@@]2(C)C3=CC[C@H]4C(C)(C)[C@@H](O)CC[C@]4(C)C3=CC[C@]12C
Activity (HepG2 [14]): 32.36 U/L | Activity (HepG2 [15]): 23.22 U/L

CC(C)=CCC[C@H](C(=O)O)[C@@H]1CC[C@]2(C)C3=C(CC[C@@]12C)[C@@]1(C)CC[C@@H](O)C(C)(C)[C@@H]1CC3
Activity (L02 [1]): 30.1%

C=C(C)[C@@H]1C[C@H](O)C2=C(C(=O)C[C@]3(C)[C@@H]([C@H](C)CCC(=O)OC)CC[C@@]23C)[C@@]1(C)CCC(=O)OC
Activity (HepG2 [14]): 19.09 U/L | Activity (HepG2 [15]): 16.06 U/L

CC(C)(O)[C@@H]1CC[C@@H]([C@H]2[C@H](O)C[C@]3(C)[C@@H]2CC[C@@H]2[C@@]4(C)CC[C@H](O[C@@H]5O[C@H](CO)[C@@H](O)[C@H](O)[C@H]5O[C@@H]5O[C@H](CO)[C@@H](O)[C@H](O)[C@H]5O)C(C)(C)[C@@H]4CC[C@]23C)O1
Activity (L02 [13]): 69.5%

CC1(C)CC[C@@]2(C)[C@H](C1)C1=CC[C@@H]3[C@@]4(C)CC[C@@H](O)C(C)(C)[C@@H]4CC[C@@]3(C)[C@]1(C)C[C@@H]2O
Activity [5]: 5.3%

C[C@H]1O[C@@H](O[C@H]2CC[C@@]3(C)[C@@H](CC[C@]4(C)[C@@H]3[C@H](O)C=C3[C@@H]5CC(C)(C)CC[C@]5(CO)[C@@H](O)C[C@]34C)[C@]2(C)CO)[C@H](O)[C@@H](O[C@@H]2O[C@H](CO)[C@@H](O)[C@H](O)[C@H]2O)[C@H]1O
Activity [7]: 46.5%

CC(C)=CCC[C@](C)(O[C@@H]1O[C@H](CO)[C@@H](O)[C@H](O)[C@H]1O)[C@H]1CC[C@]2(C)[C@@H]1[C@H](O)C[C@@H]1[C@@]3(C)CC[C@H](O)C(C)(C)[C@@H]3[C@@H](O[C@@H]3O[C@H](CO)[C@@H](O)[C@H](O)[C@H]3O)C[C@]12C [GINSENOSIDE RG1]
Activity (Mus musculus [9]): 12% | Activity (Mus musculus [11]): 30%

CC(=O)O[C@@H]1C[C@](C)(C(=O)O)C[C@H]2C3=CC(=O)[C@@H]4[C@@]5(C)CC[C@H](O[C@@H]6O[C@H](C(=O)O)[C@@H](O)[C@H](O)[C@H]6O[C@@H]6O[C@H](C(=O)O)[C@@H](O)[C@H](O)[C@H]6O)C(C)(C)[C@@H]5CC[C@@]4(C)[C@]3(C)CC[C@@]12C
Activity (Hepatocyte [17]): 16.5 U/L | IC50 [18]: 27.1 µM | Activity (Hepatocyte [19]): 242.8 U/L

C[C@H]1O[C@@H](O[C@H]2CC[C@@]3(C)[C@@H](CC[C@]4(C)[C@@H]3C(=O)C=C3[C@@H]5CC(C)(C)CC[C@]5(CO)[C@@H](O)C[C@]34C)[C@]2(C)CO)[C@H](O)[C@@H](O[C@@H]2O[C@H](CO)[C@@H](O)[C@H](O)[C@H]2O)[C@H]1O
Activity [7]: 90.9%

C[C@]1(C(=O)O)CC[C@]2(C)CC[C@]3(C)C(=CC(=O)[C@@H]4[C@@]5(C)CC[C@H](O[C@@H]6O[C@H](C(=O)O)[C@@H](O)[C@H](O)[C@H]6O[C@@H]6O[C@H](C(=O)O)[C@@H](O)[C@H](O)[C@H]6O)[C@](C)(CO)[C@@H]5CC[C@]43C)[C@H]2C1
Activity (Hepatocyte [17]): 17.1 U/L | IC50 [18]: 3.6 µM | Activity (Hepatocyte [19]): 253.5 U/L

CC1(C)CC[C@]2(C(=O)O)CC[C@]3(C)[C@H](C=C[C@@H]4[C@@]5(C)C[C@@H](O)[C@H](O)C(C)(C)[C@@H]5[C@H](O)C[C@]43C)[C@H]2[C@@H]1O
Activity (Hepatocyte [2]): 24.4% | Activity (Hepatocyte [3]): 15.4%

C[C@H]1[C@H](C)CC[C@@]2(C)[C@@H]1C1=CC[C@@H]3[C@@]4(C)CC[C@@H](O)C(C)(C)[C@@H]4CC[C@@]3(C)[C@]1(C)C[C@@H]2O
Activity [5]: 48% | Activity [6]: 22.7%
